Values after ≈ are worked out from the molar mass of the structure shown. Like-named read-outs stand apart in the source and are kept apart here.
Key:
[1] = tested on: CDC1551(rv2390c′::GFP) reporter Mtb strain; settings: pH 7
[2] = tested on: CDC1551(rv2390c′::GFP) reporter Mtb strain; assay: microbe, parasite or virus in culture; settings: Mycobacterium tuberculosis, 216 h
[3] = tested on: Mtb growth in J774 macrophage-like cells; assay: J774 infection in 96-well plates, mKO fluorescence 6 days post-infection; type: cell-based, Mycobacterium tuberculosis; settings: 6 days post-infection
Method in brief: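 J774 cells infected with mKO-expressing log-phase Mtb (40 μl at OD600 = 0.2 per well) and treated with compound at 10 μM final (0.1% DMSO). mKO fluorescence (ex 543/em 565 nm) read at infection and 6 days later at 37 °C, 5% CO2; growth expressed relative to DMSO controls as 100%.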

[4] = tested on: WT Mtb (Erdman) in primary murine BMDMs; assay: Primary murine bone marrow-derived macrophage infection, CFU; type: cell-based, Mycobacterium tuberculosis; settings: 10 μM; for CFU/ml in BMDMs, average: Fig 1I
Method: C57BL/6J wild-type mice (Jackson Laboratories) were used for extraction of BMDMs. Cells were harvested and expanded in DMEM containing 10% FBS, 15% L-cell conditioned media, 2 mM L-glutamine, 1 mM sodium pyruvate, and penicillin/streptomycin as needed in a 37°C incubator in a 5% CO2 atmosphere. […] Macrophages were lysed with water containing 0.01% sodium dodecyl sulfate and a dilution series of the samples plated on 7H10 agar for CFU determination.

[5] = Mouse liver microsomal stability; type: in vitro ADME; settings: mouse liver microsomes; read-out: half-life (t1/2) in mouse liver microsomes
Method: (§1) Assays examining mouse and human liver microsomal stability, kinetic aqueous solubility, mouse and human plasma protein binding and stability, and human cytochrome P450 inhibition characteristics of the compounds were run by BioDuro (San Diego, CA), using standard protocols as previously described [37]. hERG inhibition assays were also performed by BioDuro.

[6] = Kinetic aqueous solubility; type: physicochemical; settings: pH 7.4 phosphate buffered saline; read-out: kinetic aqueous solubility (S)
Method: as §1

[7] = tested on: CDC1551(rv2390c′::GFP) reporter Mtb strain, response to high [Cl−]; assay: microbe, parasite or virus in culture; type: cell-based, Mycobacterium tuberculosis
[8] = Pharmacokinetic assay, single oral dose in CD-1 mice; type: in vivo; settings: female, mouse, plasma; CD-1 mice, single 5 mg/kg po dose; read-out: plasma AUC0–5h
Method: Blood samples were collected in K2EDTA-coated tubes predose, 0.5, 1, 3, and 5 hours post-dose, placed on ice, and centrifuged to recover plasma. The recovered plasma was kept at −80°C as needed prior to analysis, which was performed as previously described. In brief, a Sciex Applied Biosystems Qtrap 4000 triple-quadrupole mass spectrometer coupled to an Agilent 1260 HPLC system was used for HPLC coupled to tandem mass spectrometry (LC–MS/MS) quantitative analysis of the samples, with chromatography attained using an Agilent Zorbax SB-C8 column (2.1 × 30 mm; particle size, 3.5 μm) and a reverse-phase gradient elution. The aqueous mobile phase consisted of Milli-Q deionized water with 0.1% formic acid (A), while the organic mobile phase was 0.1% formic acid in acetonitrile (B). The gradient setup was as follows: 5% to 90% B over 2 minutes, 1 minute at 90% B, then an immediate drop to 5% B and an additional 1 minute at 5% B. Quantification of molecules was carried out via multiple reaction monitoring of parent/daughter transitions in electrospray positive ionization mode, and sample analyses accepted if quality control and standard samples had concentrations within 20% of the nominal concentration. Preparation of compounds for generation of standard curves and quality control spiking solutions were performed as previously described. Data were processed using Analyst software (Version 1.6.2; Applied Biosystems Sciex, Framingham, MA).

[9] = tested on: CDC1551(rv1405c′::GFP) reporter Mtb strain; assay: microbe, parasite or virus in culture; type: cell-based, Mycobacterium tuberculosis; settings: for NPA - rv1405c'::GFP, average: Fig 1D
[10] = tested on: Mtb growth in J774 murine macrophage-like cells; assay: microbe, parasite or virus in culture; type: cell-based, Mycobacterium tuberculosis; settings: for NPI (Mtb growth in J774 cells), average: Fig 1F

## O=C(c1cnc2ccccn12)N1CCCC(CCc2cccc(C(F)(F)F)c2)C1 (stereo not shown) [C5, FC(F)(F)C1=CC=CC(CCC2CCCN(C2)C(=O)C2=CN=C3C=CC=CN23)=C1]
[1]
  Ability to increase rv2390c′::GFP reporter signal in high [Cl−]: increased rv2390c′::GFP reporter signal
[2]; pH 7, read-out: Fold induction of rv2390c′::GFP reporter, average
  fold induction at 10 µM: 6.34
[2]; read-out: Fold induction of rv2390c′::GFP reporter, average
  fold induction at 10 µM: 5.92
[3]; 10 μM compound, DMSO = 100%, Fig 1H
  % growth of Mtb in J774 cells, average: 37.9568%
[3]; 10 μM
  Inhibition of Mtb growth in J774 cells: Mtb growth inhibition
[4]; 8-day infection time course, vs DMSO
  Effect on bacterial load / Mtb growth in primary murine BMDMs: significant decrease in bacterial load
[4]; day 2
  CFU/ml in BMDMs, average: 152000 CFU/ml
[4]; day 4
  CFU/ml in BMDMs, average: 191000 CFU/ml
[4]; day 6
  CFU/ml in BMDMs, average: 264500 CFU/ml
[4]; day 8
  CFU/ml in BMDMs, average: 318000 CFU/ml
[5]
  half-life: 4.98 min
[6]
  solubility kinetic: 6.67 µM (≈ 2.68 µg/mL)
[7]; 0.0390625 µM, Fig 1C
  NPA - rv2390c'::GFP, average: 99.0333%
[7]; 0.078125 µM, Fig 1C
  NPA - rv2390c'::GFP, average: 96.3333%
[7]; 0.15625 µM, Fig 1C
  NPA - rv2390c'::GFP, average: 99.1%
[7]; 0.3125 µM, Fig 1C
  NPA - rv2390c'::GFP, average: 113.667%
[7]; 0.625 µM, Fig 1C
  NPA - rv2390c'::GFP, average: 116.667%
[7]; 1.25 µM, Fig 1C
  NPA - rv2390c'::GFP, average: 131.667%
[7]; 2.5 µM, Fig 1C
  NPA - rv2390c'::GFP, average: 132.333%
[7]; 5 µM, Fig 1C
  NPA - rv2390c'::GFP, average: 137%
[7]; 10 µM, Fig 1C
  NPA - rv2390c'::GFP, average: 131.333%
[7]; 20 µM, Fig 1C
  NPA - rv2390c'::GFP, average: 142.333%
[7]; Mycobacterium tuberculosis, 144 h, pH 6.4, […], DMSO positive control = 100%, read-out: Primary screen rv2390c'::GFP NPA%
  activity at 10 µM: 182%
[7]; Mycobacterium tuberculosis, 144 h, 10 µM, pH 6.4, 250 mM NaCl, 6 days, read-out: rv2390c'::GFP validation assay NPA% at 10 µM compound
  activity at 10 µM: 131 ± 9.8%
[7]; Mycobacterium tuberculosis, 144 h, 20 µM, pH 6.4, 250 mM NaCl, 6 days, read-out: rv2390c'::GFP validation assay NPA% at 20 µM compound
  activity at 20 µM: 142 ± 4.2%
[7]; Mycobacterium tuberculosis, 144 h, pH 6.4, 250 mM NaCl, 6 days, Fig 1C, read-out: AC50 (activatory concentration, 50%), rv2390c′::GFP
  AC50: 500 nM
[8]
  AUC(0-t): 42 ng·h/mL
[9]; 0.0390625 µM
  NPA - rv1405c'::GFP, average: 91.05%
[9]; 0.078125 µM
  NPA - rv1405c'::GFP, average: 91.6%
[9]; 0.15625 µM
  NPA - rv1405c'::GFP, average: 98.45%
[9]; 0.3125 µM
  NPA - rv1405c'::GFP, average: 118%
[9]; 0.625 µM
  NPA - rv1405c'::GFP, average: 125%
[9]; 1.25 µM
  NPA - rv1405c'::GFP, average: 130%
[9]; 2.5 µM
  NPA - rv1405c'::GFP, average: 114.5%
[9]; 5 µM
  NPA - rv1405c'::GFP, average: 132.5%
[9]; 20 µM
  NPA - rv1405c'::GFP, average: 145.5%
[9]; Mycobacterium tuberculosis, read-out: rv1405c'::GFP secondary assay NPA% at 10 µM compound
  activity at 10 µM: 135 ± 14.8%
[9]; Mycobacterium tuberculosis, read-out: rv1405c'::GFP secondary assay NPA% at 20 µM compound
  activity at 20 µM: 147 ± 7%
[10]; 0.078125 µM, 5 µM rifampicin = 100% inhibition
  NPI (Mtb growth in J774 cells), average: -6.175%
[10]; 0.15625 µM
  NPI (Mtb growth in J774 cells), average: 0.5445%
[10]; 0.3125 µM
  NPI (Mtb growth in J774 cells), average: -0.235%
[10]; 0.625 µM
  NPI (Mtb growth in J774 cells), average: 9.79%
[10]; 1.25 µM
  NPI (Mtb growth in J774 cells), average: 32.35%
[10]; 2.5 µM
  NPI (Mtb growth in J774 cells), average: 39.55%
[10]; 5 µM
  NPI (Mtb growth in J774 cells), average: 48.4%
[10]; 10 µM
  NPI (Mtb growth in J774 cells), average: 50.85%
[10]; 20 µM
  NPI (Mtb growth in J774 cells), average: 55%
[10]; Mycobacterium tuberculosis, J774, 144 h, read-out: J774 tertiary assay % inhibition compared to Rif at 10 µM compound
  inhibition at 10 µM: 50.9 ± 3.2%
[10]; Mycobacterium tuberculosis, J774, 144 h, read-out: J774 tertiary assay % inhibition compared to Rif at 20 µM compound
  inhibition at 20 µM: 55 ± 5.8%

Reference: article PMC8351955, “Targeting Mycobacterium tuberculosis response to environmental cues for the development of effective antitubercular drugs” (PLoS Biology, 2021)
